Assay results reported in publication PMC4932603, “Identification, Characterization, and X-ray Crystallographic Analysis of a Novel Type of Mannose-Specific Lectin CGL1 from the Pacific Oyster Crassostrea gigas” (Scientific Reports, 2016).

What was measured:
[1] = molecular target: T1, nCGL1 (native CGL1) (Magallana gigas, UniProt K1QRB6); experiment: isothermal titration calorimetry; type: binding; conditions: read-out: K / × 10^3 M^-1 (converted)
T1 construct: gene CGI_10011001; native purification from oyster bodies (mannose-Cellulofine)
Source text: isothermal titration calorimetry on nCGL1 (native CGL1)

[2] = molecular target: CGL1 (preparation not told: native or recombinant) (Crassostrea gigas); experiment: dynamic light scattering (DLS) + other: small angle X-ray scattering (SAXS); in an aqueous solution

CO[C@H]1O[C@H](CO)[C@@H](O)[C@H](O)[C@@H]1O [α-MeMan]
Kd [1]: 671 µM

CGL1 (preparation not told: native or recombinant) (natural protein)
stoichiometry N [2]: 2
